Read-outs that look alike come from different tables or passages of the source.
What was measured:
[1] = Cytotoxicity assays; type: cell-based; details: human, HG23 and Huh-7 cells
[2] = Cytotoxicity assays; type: cell-based; details: mouse, RAW 264.7 cells
[3] = system: bovine viral diarrhoea virus (BVDV); details: cited from earlier work
[4] = system: MNV (MNV-1.CW3); test: MNV assay: MNV infectivity by TCID50 in RAW 264.7 cells; type: cell-based, murine norovirus; details: for Effect on MNV titre (infectivity), in words: RAW 264.7 cells, TCID50
[5] = system: NPT II expression in HG23 cells; test: Western blot of NPT II expression in HG23 cells; type: cell-based, Norwalk virus; details: for NPT II expression, % of untreated cells: 72 h incubation; for IC50: Norwalk virus, HG23, read-out: IC50, concentration required to reduce NPT II expression in HG23 cells by 50%
[6] = system: MNV (MNV-1.CW3); test: MNV assay: MNV RNA levels by RT-qPCR in RAW 264.7 cells; type: cell-based, murine norovirus; details: for EC90 / EC50: Norwalk virus; for EC50: RAW264.7, read-out: EC50, concentration required to reduce MNV RNA copy number by 50%; for SI (CC50/EC50), MNV / Antiviral activity against MNV (RNA levels), in words: RAW 264.7 cells; for Antiviral activity against MNV (RNA levels), in words: 0.1-100 μM (RBV 10-200 μM)
[7] = system: NV replicon (HG23 cells); test: Norwalk virus replicon assay: NV RNA by RT-qPCR in HG23 cells; type: cell-based; details: for Reduction in NV RNA: 10 μM; for Effect on NV RNA levels in HG23 cells, in words: 24-96 h post-treatment; for SI / therapeutic index (CC50/EC50), NV replicon: HG23 cells; for EC90: HG23, read-out: EC90, concentration required to reduce NV RNA copy number in HG23 cells by 90%
[8] = system: HCV; details: cited from earlier work
[9] = cited from earlier work
[10] = system: HCV infections; details: reportedly; Phase II, treatment of HCV; cited from earlier work
[11] = RAW264.7, read-out: EC90, concentration required to reduce MNV RNA copy number by 90%
[12] = Norwalk virus, HG23, read-out: EC50, concentration required to reduce NV RNA copy number in HG23 cells by 50%, RT-qPCR
[13] = read-out: EC50, concentration required to reduce NV RNA copy number in HG23 cells by 50%, RT-qPCR

## C[C@@]1(O)[C@H](O)[C@@H](CO)O[C@H]1n1ccc(N)nc1=O [2′-C-MeC, 4-amino-1-((2R, 3R, 4R, 5R)-3,4 dihydroxy-5-(hydroxymethyl)-3-methyltetrahydrofuran-2-yl) pyrimidin-2(1H)-one]
[1]
  CC50 at 5 days: > 100 µM
[2]
  CC50 at 5 days: > 100 µM
[3]; read-out: EC50 against BVDV, range given for HCV and BVDV together
  EC50: 2 to 7 µM
[4]; Norwalk virus, RAW264.7, 24 h, read-out: Inhibition of MNV replication (titre)
  inhibition at 100 µM: 99%
[4]
  Effect on MNV titre (infectivity), in words: MNV titres were significantly reduced
[5]; 1 μM
  NPT II expression, % of untreated cells: 83%
[5]; 10 μM
  NPT II expression, % of untreated cells: 13%
[5]; 100 μM
  NPT II expression, % of untreated cells: 2%
[5]
  IC50: 2.77 ± 1.4 µM
[6]; 0.1 μM, 72 h of exposure
  Reduction of MNV RNA levels: 2 log10
[6]; 100 μM, 24 h post-treatment
  Inhibition of MNV replication (RNA): 3 log10
[6]; RAW264.7, 24 h, read-out: EC90, MNV RNA (1 log10 reduction) (converted)
  EC90: 25.6 ± 3.7 µM
[6]
  EC50: 6.9 ± 3.9 µM
  SI (CC50/EC50), MNV: >14.6
  Antiviral activity against MNV (RNA levels), in words: dose- and time-dependent reduction of MNV RNA levels
[6]; [11]
  EC90: 25.4 ± 3.6 µM
[7]; 72 h post-treatment
  Reduction in NV RNA: 1.2 log10
[7]; 96 h post-treatment
  Reduction in NV RNA: 3.6 log10
[7]; 0.1 and 1 μM, after 96 h
  Reduction of NV RNA level: 2.5 log10
[7]
  Effect on NV RNA levels in HG23 cells, in words: dose- and time-dependent reduction of NV RNA levels
  SI / therapeutic index (CC50/EC50), NV replicon: > 77.5
[7]; [12]
  EC50: 1.3 µM
[7]; Norwalk virus
  EC90: 8.9 ± 1.5 µM
[7]; [13]
  EC50: 1.29 ± 0.8 µM
[8]; read-out: EC50 against HCV, range given for HCV and BVDV together
  EC50: 2 to 7 µM

## C[C@@]1(F)[C@H](O)[C@@H](CO)O[C@H]1n1ccc(N)nc1=O [2′-F-2′-C-MeC, 4-amino-1-((2R, 3R, 4R, 5R)-3-fluoro-4-hydroxy-5-(hydroxymethyl)-3-methyltetrahydrofuran-2-yl) pyrimidin-2(1H)-one]
[1]
  CC50 at 5 days: > 100 µM
[2]
  CC50 at 5 days: > 100 µM
[3]
  Activity against BVDV replication, in words: not BVDV replication
[4]; Norwalk virus, RAW264.7, 12 h, read-out: IC50, MNV infectivity
  IC50: 33.9 ± 1.1 µM
[4]
  Effect on MNV titre (infectivity), in words: reduced MNV titres, but only at 12 h post-treatment
[6]
  EC50: 12.7 ± 2.9 µM
  SI (CC50/EC50), MNV: >7.9
  Antiviral activity against MNV (RNA levels), in words: dose-dependent antiviral activity only at 12 h post-treatment
[6]; [11]
  EC90: 91.2 ± 2.8 µM
[7]
  Effect on NV RNA levels in HG23 cells, in words: dose- and time-dependent reduction of NV RNA levels
  SI / therapeutic index (CC50/EC50), NV replicon: > 31.4
[7]; [12]
  EC50: 3.2 ± 1.5 µM
[7]; Norwalk virus
  EC90: 49 ± 2.9 µM
[8]
  Activity against HCV replication, in words: inhibits HCV

## Nc1ccn([C@@H]2CS[C@H](CO)O2)c(=O)n1 [3TC, 4-amino-1-((2R, 5S)-2-(hydroxymethyl)-1,3-oxathiolan-5-yl) pyrimidin-2(1H)-one, reference compound]
[1]
  CC50 at 5 days: > 100 µM
[2]
  CC50 at 5 days: > 100 µM
[4]
  Effect on MNV titre (infectivity), in words: No reduction of MNV titre was observed
[6]
  Antiviral activity against MNV (RNA levels), in words: Neither 3TC nor NHC had antiviral activity against MNV
[7]
  Effect on NV RNA levels in HG23 cells, in words: did not show antiviral activity

## O=c1nc(NO)ccn1[C@@H]1O[C@H](CO)[C@@H](O)[C@H]1O [NHC, 1-((2R, 3R, 4S, 5R)-3,4-dihydroxy-5-(hydroxymethyl)tetrahydrofuran-2-yl)-4-(hydroxyamino) pyrimidin-2(1H)-one]
[1]
  CC50 at 5 days: > 100 µM
[2]
  CC50 at 5 days: > 100 µM
[9]
  Mutagenic properties: has mutagenic properties
[3]
  Activity against BVDV, in words: active against HCV, BVDV
[4]
  Effect on MNV titre (infectivity), in words: No reduction of MNV titre was observed
[5]; 1 μM
  NPT II expression, % of untreated cells: 91%
[5]; 10 μM
  NPT II expression, % of untreated cells: 40%
[5]; 100 μM
  NPT II expression, % of untreated cells: 16%
[5]
  IC50: 6 ± 1.7 µM
[6]
  EC50: 8.8 ± 4.2 µM
  SI (CC50/EC50), MNV: >11.4
  Antiviral activity against MNV (RNA levels), in words: Neither 3TC nor NHC had antiviral activity against MNV
[7]
  Effect on NV RNA levels in HG23 cells, in words: dose- and time-dependent reduction of NV RNA levels
  SI / therapeutic index (CC50/EC50), NV replicon: > 68.0
[7]; [12]
  EC50: 1.5 µM
[7]; Norwalk virus
  EC90: 16.6 ± 2.1 µM
[7]; [13]
  EC50: 1.47 ± 1.1 µM
[8]
  Activity against HCV, in words: active against HCV, BVDV

## CC(C)[C@H](N)C(=O)O[C@@H]1[C@@H](CO)O[C@@H](n2ccc(N)nc2=O)[C@]1(C)O [NM-283]
[10]
  Clinical outcome in HCV trials, in words: found to have gastrointestinal problems

## NC(=O)c1ncn([C@@H]2O[C@H](CO)[C@@H](O)[C@H]2O)n1 [RBV, ribavirin, reference compound]
[1]
  CC50 at 5 days: > 200 µM
[2]
  CC50 at 5 days: > 100 µM
[6]
  EC50: 63.5 ± 2.3 µM
  SI (CC50/EC50), MNV: >1.6
  Antiviral activity against MNV (RNA levels), in words: reduced MNV RNA levels in a dose-dependent manner at 12 h and 24 h post-treatment
[6]; [11]
  EC90: 105 ± 1.5 µM
[7]
  SI / therapeutic index (CC50/EC50), NV replicon: >5.0
[7]; [12]
  EC50: 40 ± 2.3 µM
[7]; Norwalk virus
  EC90: 96.3 ± 2.5 µM

## CC(C)C(=O)OC[C@H]1O[C@@H](n2ccc(N)nc2=O)[C@](C)(F)[C@@H]1OC(=O)C(C)C [RG-7128]
[10]
  Clinical outcome in HCV trials, in words: demonstrated safety and efficacy against HCV

Source: paper PMC7751060 (Antiviral therapy, 2012)
